Laboratory results from patent publication US6476007B2, “Isoform specific inhibition for treatment of pain and reduction of anesthetic threshold” (The Johns Hopkins University, priority 1999, dated 2002).
Counter-ions that a name gives are not always drawn. Like-named read-outs stand apart in the source and are kept apart here.

Experiments:
[1] = Subjective observation of animal behavior after intrathecal administration; conditions: period of 2 h, compared with control animals
[2] = tested on: NOC-12-induced decrease in the tail-flick latency; conditions: for effect on NOC-12-induced decrease in the tail-flick latency: tested 30 and 60 min, p<0.01
Protocol: Rats were anesthetized by intraperitoneal injection of pentobarbital sodium (45 mg/kg). Chronic intrathecal catheters were inserted by passing a polyethylene-10 (PE-10) catheter through an incision in the atlanto-occipital membrane to a position 8 cm caudal to the cistema at the level of the lumbar subarachinoid space. The animals were allowed to recover for a week before experiments were initiated. Rats showing neurologic deficits post-operatively were removed from the study.
Nociception was evaluated by the radiant heat tail-flick test with no anesthesia. Each rat was placed in an Animal Holder (IITC Life Science, CA, USA), 690 cm^3 in capacity with rubber stoppers in both ends with a rostral inlet and a caudal outlet. The tail of the rat protruded through the caudal hole. The tail-flick apparatus (Model 33B Tail Flick Analgesy Meter, IITC Life Science, CA, USA) generated a beam of radiant heat which was focused on the underside of the tail, 5 cm from the tip. […] Nociception was assessed by the prolongation of the time required to induce tail-flick after applying radiant heat to the skin of the tail. The latency of reflexive removal of the tail from the heat was measured automatically to the nearest 0.01 s. Tail-flick latency was measured six times and the basal latency was defined as the mean of the last five times. The tail-flick data are expressed as percentage change calculated by the formula: (trial latency—baseline latency)/(baseline latency)×100%.
The drug solution was injected intrathecally in a volume of 10 μl, followed by an injection of 10 μl of saline to flush the catheter.

[3] = tested on: formalin-induced pain behavior; conditions: for reduction of the number of flinches and shakes evoked by formalin: 30 μg intrathecal
Protocol: The rats were implanted with an intrathecal catheter under pentobarbital anesthesia. A polyethylene (PE-10) tube was inserted into the subarachnoid space at the rostral level of the spinal cord lumbar enlargement through an incision at the atlanto-occipital membrane according to the method of Yaksh and Rudy (27). The animals were allowed to recover for 7 to 10 days before being used experimentally. Rats showing neurological deficits postoperatively were discarded.
(§1) The drug was dissolved in distilled water before administration. The animals were randomly assigned into four groups as follows: distilled water (control) (n=12); 10 μg of Rp-8-p-CPT-cGMPS (n=6); 20 μg of Rp-8-p-CPT-cGMPS (n=6); 30 μg of Rp-8-p-CPTc-GMPS (n=6). The drug solution was injected intrathecally in a volume of 10 μl, followed by an injection of 10 μl of distilled water to flush the catheter. Fifteen minutes later, formalin (100 μl, 4%) was injected into a hind paw of the rat. In addition, four rats were alone treated intrathecally with Rp-8-p-CPT-cGMPS (30 μg) and another four rats were normal without any treatment.
Immediately following the formalin injection, each individual rat was placed in a transparent cage for observation of the formalin-injected paw. The pain-related behaviors, flinches and shakes, were assessed for the next 60 min by an experimenter who was unaware of the group assignment. The observational session was divided into two periods: a phasic period (0-10 min) and a tonic period (10-60 min). The mean number of flinches and shakes for each period of each treatment group was determined

[4] = tested on: formalin-induced c-fos expression in the spinal cord; conditions: for number of Fos-positive neurons in laminae I-II, III-IV and V-VI: vs water pretreated rats; for mean reduction in number of fos-positive neurons per section: vs control group, p<0.05
Protocol: For Fos immunohistochemistry, rats were perfused one hour after the behavioral test was done as described below. The lumbar spinal cord was removed and cut into 30 μm transverse sections. Sections were processed following the above-mentioned procedures except that the primary antibody was substituted with polyclonal rabbit anti-Fos antibody (1:4,000, Santa Cruz Biotechnology, Inc., CA).
as §1

tail-flick latency = test: Radiant heat tail-flick test, agents given alone intrathecally; type: in vivo, rat; conditions: for maximal decrease in the tail-flick latency: compared to saline-treated group
[5] = tested on: NMDA-induced facilitation of the tail-flick reflex; test: NMDA-induced facilitation of the tail-flick reflex; type: in vivo, rat
[6] = tested on: PKGIα expression in the spinal cord; test: Western blot of PKGIα in lumbar enlargement segments 96 h after formalin injection; type: in vivo, rat; conditions: 96 h formalin-treated rats, not significant (p>0.05)
Protocol: Thirty five rats were sacrificed by decapitation at 0 h (normal control), 24 h, 48 h and 96 h after injection of saline (100 μl) or formalin (100 μl, 4%) into a hind paw. Lumbar enlargement segments of the spinal cord were dissected, quickly frozen in liquid nitrogen and stored at −80° C. for later use. Frozen tissues were homogenized in the homogenization buffer (50 mM Tris-HCl, 0.1 mM EDTA, 0.1mM EGTA, 1 mM phenylmethylsulfonyl fluoride, 1 μM leupeptin, 2 μM pepstatin A, 0.1% 2-mercaptoethanol). The crude homogenate was centrifuged at 4° C. for 15 min at 3,000×g. The supernatants (100 μg) were heated for 5 min at 90° C. and then loaded onto 4% stacking/7.5% separating SDS-polyacrylamide gels. The proteins were electrophoretically transferred onto nitrocellulose membrane and blocked with 2% non-fat dry milk and subsequently incubated for 1 h with polyclonal rabbit anti-PKGIα antibody (1:500) and with monoclonal mouse anti-endothelium NOS (eNOS) antibody (1:500) (Transduction Labs). Normal lung was used as a positive control. Specific proteins were detected using horseradish peroxidase-conjugated anti-rabbit or anti-mouse secondary antibody and visualized using chemiluminescence reagents provided with the ECL kit (Amersham Life Sciences Inc, II) and exposure to film. The intensity of blots was quantified with densitometry (Personal Densitometer/IMAGEQUANT; Molecular Dynamics).
In some experiments, rats were injected intraperitoneally (i.p.) with an NMDA receptor antagonist, MK-801 (RBI, MA), a selective neuronal NOS inhibitor (nNOS), 7-Nitroindazole (7-NI, Alexis Biochemicals, CA) and a selective sGC inhibitor, 1H-[1,2,4]oxadiazolo[4,3-a]quinoxalin-1-one (ODQ, Alexis Biochemicals, CA), each day for 4 days (96 h). The doses of MK-801, 7-NI and ODQ used in the present study were determined regarding to the previous studies (29-31). The experiments were divided into five groups. Group 1 (n=4) as control: i.p. injection of saline (0.9%, 2 ml) or peanut oil (2 ml) 30 min prior to the subcutaneous injection of saline (0.9%, 100 μl). […]

[7] = tested on: mechanical allodynia induced by capsaicin; conditions: Sluka and Willis (1997); cited from earlier work
[8] = tested on: NMDA-produced facilitation of the tail flick reflex; conditions: pretreatment, spinal cord; Meller et al., 1992a; cited from earlier work
[9] = 100 mg/kg i.p. in peanut oil each day for 4 days

CCN(CC)CC.Nc1nc2c(nc(Sc3ccc(Cl)cc3)n2[C@@H]2O[C@@H]3COP(O)(=S)O[C@H]3[C@H]2O)c(=O)[nH]1 (stereo partly drawn) [Rp-8-p-CPT-cGMPS, Rp-8-[(4-Chlorophenyl)thio]-cGMPS triethylamine]
changes in animal behavior on subjective observation [1]: no obvious changes in animal behavior | effect on the hyperalgesia induced by NOC-12 ([2]; 7.5 μg intrathecal, 30 μg NOC-12, p>0.05): did not influence | effect on NOC-12-induced decrease in the tail-flick latency ([2]; 15 μg intrathecal 10 min prior to 30 μg NOC-12): significantly blocked | effect on NOC-12-induced decrease in the tail-flick latency ([2]; 30 μg intrathecal 10 min prior to 30 μg NOC-12): significantly blocked | effect on the formalin response ([3]; 10 μg intrathecal, phasic or tonic period): did not influence | effect on the formalin-induced behavior ([3]; 20 μg intrathecal, phasic period): no effect | suppression of the formalin-induced behavior ([3]; 20 μg intrathecal, tonic period, p<0.01): 25% | reduction of the number of flinches and shakes evoked by formalin ([3]; phasic period (0-10 min), p<0.01): 64% | reduction of the number of flinches and shakes evoked by formalin ([3]; tonic period (10-60 min), p<0.01): 66% | number of Fos-positive neurons in laminae I-II, III-IV and V-VI ([4]; 20 μg intrathecal): significantly decreased | mean reduction in number of fos-positive neurons per section ([4]; 30 μg intrathecal, neck of dorsal horn): 51% | mean reduction in number of fos-positive neurons per section ([4]; 30 μg intrathecal, nucleus proprius): 30% | mean reduction in number of fos-positive neurons per section ([4]; 30 μg intrathecal, superficial laminae): 29% | number of Fos-positive neurons in laminae I-II, III-IV and V-VI ([4]; 30 μg intrathecal): significantly decreased | number of Fos-positive neurons in laminae VII-X ([4]; intrathecal 10, 20 and 30 μg, vs water): no significant reduction | Fos-positive neurons in the spinal cord ([4]; treatment with the agent only (30 μg intrathecal), no formalin): no Fos-positive neurons | effect on the baseline tail-flick latency (tail-flick latency; 7.5, 15 and 30 μg given alone, 15 to 120 min after administration, p>0.05): no significant effect | effect on the NMDA-evoked facilitation of the tail-flick reflex ([5]; 7.5 μg intrathecal, p>0.05): failed to produce significant effect | suppression of the NMDA-induced decrease of the tail-flick latency ([5]; 15 μg intrathecal prior administration, p<0.01): 13.3% | suppression of the NMDA-induced decrease of the tail-flick latency ([5]; 30 μg intrathecal prior administration, p<0.01): 20.7%

O=c1onc2cnc3ccccc3n12 [ODQ, 1H-[1,2,4]oxadiazolo[4,3-a]quinoxalin-1-one]
PKGIα protein level relative to group 1 (saline-injected control) [6, 9]: 1.14 fold

COC(=O)[C@@]1(OC)C[C@H]2O[C@]1(C)n1c3ccccc3c3c4c(c5c6ccccc6n2c5c31)C(=O)N(C)C4 [KT5823]
effect on mechanical allodynia induced by capsaicin [7]: reversed

CN[C@H](CC(=O)O)C(=O)O [NMDA, N-methyl-D-aspartate]
changes in animal behavior on subjective observation [1]: caudally directed biting and scratching behaviors | tail-flick latency after intrathecal administration (tail-flick latency; intrathecal NMDA, baseline 6.58±0.57 seconds, p<0.01): 4.88 ± 0.41 s

O=[N+]([O-])c1cccc2cn[nH]c12 [7-NI, 7-Nitroindazole]
PKGIα protein level relative to group 1 (saline-injected control) [6, 9]: 1.17 fold

CN(C)c1ccc2nc3ccc(=[N+](C)C)cc-3sc2c1 [methylene blue]
effect on NMDA-produced facilitation of the tail flick reflex [8]: completely abolished

CCNCCN(CC)N(O)N=O [NOC-12, N-ethyl-2-(1-ethyl-2-hydroxy-2-nitrosohydrazino)ethanamine]
changes in animal behavior on subjective observation [1]: no obvious changes in animal behavior | maximal decrease in the tail-flick latency (tail-flick latency; 10 μg intrathecal): 5.4% | maximal decrease in the tail-flick latency (tail-flick latency; 20 μg intrathecal, p<0.01): 18.5% | maximal decrease in the tail-flick latency (tail-flick latency; 30 μg intrathecal, p<0.01): 24.9% | tail flick latency after maximal reduction (tail-flick latency; 30 μg intrathecal, baseline 6.53±0.28 seconds): 4.65 ± 0.32 s | hyperalgesia 120 min after intrathecal injection (tail-flick latency; 120 min after intrathecal injection): no longer observed | time of maximum effect on tail-flick latency (tail-flick latency; intrathecal, decrease seen from 15 to 90 min): 60 min

C[C@]12N[C@H](Cc3ccccc31)c1ccccc12 [MK-801, dizocilpine maleate]
effect on NMDA-produced facilitation of the tail-flick reflex ([5]; prior intrathecal treatment, p<0.01): completely abolished | PKGIα protein level relative to group 1 (saline-injected control) ([6]; 2 mg/kg i.p. each day for 4 days): 1.13 fold

COC(=O)[C@@H](N)CCCNC(=N)N[N+](=O)[O-] [N^G-nitro-L-arginine methyl ester]
effect on NMDA-produced facilitation of the tail flick reflex [8]: completely abolished
